The data set in a line: in vitro. The settings on record: human, hela cells, % viability.
The viability is a read-out of living cells in per cent, often relative to untreated cells. As to `FC(F)(F)c1cccc(Nc2cncc(-c3cccs3)n2)c1` [CBK065750], the viability at 28.5 h, 10 µM came out at 125%.
Regarding `CCN(CC)CCN1CCN(c2cncc(-c3cccc(N)c3)n2)CC1` [CBK065751], the viability at 28.5 h, 10 µM is 97.2%.
For `CCC(CO)Nc1cncc(-c2cccc(F)c2)n1` (centres unmarked) [CBK065752], the viability at 28.5 h, 10 µM came to 96.1%.
In the case of `Fc1ccc(-c2cncc(Nc3cccc(C(F)(F)F)c3)n2)c(F)c1` [CBK065763], the viability at 28.5 h, 10 µM is 92.5%.
For `CC(=O)Nc1ccc(-c2cncc(Nc3ccc(F)c(Cl)c3)n2)cc1` [CBK065765], the viability at 28.5 h, 10 µM turned out to be 96.1%.
For `CCOc1ccc(-c2cncc(NCCc3ccncc3)n2)cc1` [CBK065774], the viability at 28.5 h, 10 µM stood at 94.6%.
Take `CCC(CO)Nc1cncc(-c2ccccc2CO)n1` (centres unmarked) [CBK065775]: the viability at 28.5 h, 10 µM was determined as 103%.
`CCC(CO)Nc1cncc(-c2cccc(C(F)(F)F)c2)n1` (centres unmarked) [CBK065783]: the viability at 28.5 h, 10 µM turned out to be 99.4%.
As to `O=C(NCCO)c1cccc(-c2cncc(N3CCN(Cc4ccccn4)CC3)n2)c1` [CBK065784], the viability at 28.5 h, 10 µM was determined as 90.1%.
`CN(C)c1cccc(-c2cncc(Nc3cccc(C(F)(F)F)c3)n2)c1` [CBK065786]: the viability at 28.5 h, 10 µM is 100%.
With `CC(=O)Nc1ccc(-c2cncc(N(CCO)CCO)n2)cc1` [CBK065789], the viability at 28.5 h, 10 µM turned out to be 106%.
The value for `COc1ccc(C(C)C)cc1-c1cncc(N2CCN(Cc3ccccn3)CC2)n1` [CBK065792] was 88.6%; that for `CCOc1ccc(-c2cncc(Nc3cccc(C(F)(F)F)c3)n2)cc1` [CBK065798] was 50%; that for `Clc1ccc(Nc2cncc(-c3cccs3)n2)cc1` [CBK065805] was 107%.
Regarding `Nc1cccc(-c2cncc(N(CCO)CCO)n2)c1` [CBK065808], the viability at 28.5 h, 10 µM was found to be 95.5%.
With `Fc1ccc(-c2cncc(NCCc3ccncc3)n2)c(F)c1` [CBK065810], the viability at 28.5 h, 10 µM came out at 104%.
The value for `OCCN(CCO)c1cncc(-c2cccc3ccccc23)n1` [CBK065812] was 84.5%; that for `O=C(c1ccco1)N1CCN(c2cncc(-c3ccc(F)cc3F)n2)CC1` [CBK065818] was 93.7%; that for `Fc1ccc(-c2cncc(NCc3ccco3)n2)c(F)c1` [CBK065834] was 91.9%.
Regarding `OC1CCC(Nc2cncc(-c3ccc(F)cc3F)n2)CC1` (centres unmarked) [CBK065835], the viability at 28.5 h, 10 µM came to 107%.
As to `CCCNc1cncc(-c2ccc(OCC)cc2)n1` [CBK065845], the viability at 28.5 h, 10 µM worked out at 99.8%.
Take `OCCCNc1cncc(-c2ccc(F)cc2F)n1` [CBK065851]: the viability at 28.5 h, 10 µM was found to be 96.1%.
For the compound `CCOc1ccc(-c2cncc(Nc3ccc(C#N)cc3)n2)cc1` [CBK065862], the viability at 28.5 h, 10 µM is 87.2%.
Turning to `Fc1ccc(-c2cncc(NCCCN3CCOCC3)n2)c(F)c1` [CBK065867], the viability at 28.5 h, 10 µM is 91.3%.
With `CC(C)[C@@H](CO)Nc1cncc(-c2ccc(F)cc2F)n1` [CBK065875], the viability at 28.5 h, 10 µM came out at 98.5%.
Regarding `CCOc1ccc(-c2cncc(NCCc3c[nH]c4ccccc34)n2)cc1` [CBK065876], the viability at 28.5 h, 10 µM came to 93%.
Then `OCC1CCCN1c1cncc(-c2ccc(F)cc2F)n1` (centres unmarked) [CBK065891], with 112%.
As to `CN(C)CCN(C)c1cncc(-c2ccc3c(c2)OCO3)n1` [CBK065897], the viability at 28.5 h, 10 µM is 101%.
Consider `O=C(O)C1CCN(c2cncc(-c3ccc(F)cc3F)n2)CC1` [CBK065899], for which the viability at 28.5 h, 10 µM stood at 95.2%.
`OC1CCC(Nc2cncc(-c3cccc4ccccc34)n2)CC1` (centres unmarked) [CBK065902]: the viability at 28.5 h, 10 µM amounted to 90.2%.
The value for `FC(F)(F)Oc1cccc(-c2cncc(NCc3cccs3)n2)c1` [CBK065909] was 97.5%.
As for `COc1cc(CNc2cncc(-c3ccc4c(c3)OCO4)n2)cc(OC)c1OC` [CBK065922], the viability at 28.5 h, 10 µM was 99.5%.
For `c1coc(CNc2cncc(-c3ccc4c(c3)OCO4)n2)c1` [CBK065930], the viability at 28.5 h, 10 µM came out at 101%.
Then `C[C@@H](Nc1cncc(-c2ccc3c(c2)OCO3)n1)c1ccccc1` [CBK065954], with 108%; and `CCOc1cccc(-c2cncc(N(C)CCN(C)C)n2)c1` [CBK065977], with 102%; and `CN1CCCN(c2cncc(-c3ccc4c(c3)OCO4)n2)CC1` [CBK065978], with 91.7%.
With `OCCNc1cncc(-c2ccc3c(c2)OCO3)n1` [CBK065979], the viability at 28.5 h, 10 µM came to 85.6%.
The value for `CN1CCCN(c2cncc(-c3cc4ccccc4o3)n2)CC1` [CBK065997] was 93%.
Take `Fc1ccc(CNc2cncc(-c3cc4ccccc4o3)n2)cc1` [CBK066005]: the viability at 28.5 h, 10 µM is 122%.
In the case of `CC(=O)Nc1ccc(-c2cncc(Nc3ccc(C#N)cc3)n2)cc1` [CBK066009], the viability at 28.5 h, 10 µM was 97.5%.
For `OCCN(CCO)c1cncc(-c2ccc(F)c(Cl)c2)n1` [CBK066015], the viability at 28.5 h, 10 µM is 96.3%.
As to `CCOc1cccc(-c2cncc(NC(C)CCCC(C)(C)O)n2)c1` (centres unmarked) [CBK066020], the viability at 28.5 h, 10 µM stood at 95.6%.
Then `CN(C)CCN(C)c1cncc(-c2cc3ccccc3o2)n1` [CBK066028], with 92.7%.
`CC(C)(CO)CNc1cncc(-c2cc3ccccc3o2)n1` [CBK066029]: the viability at 28.5 h, 10 µM came out at 91.1%.
The value for `OC1CCC(Nc2cncc(-c3cccc(Cl)c3)n2)CC1` (centres unmarked) [CBK066031] was 91%.
The value for `c1ccc(CCNc2cncc(-c3cc4ccccc4o3)n2)nc1` [CBK066036] was 96.5%; that for `CCOc1cccc(-c2cncc(N[C@H](C)c3ccccc3)n2)c1` [CBK066042] was 103%; that for `O=C(c1ccco1)N1CCN(c2cncc(-c3cc4ccccc4o3)n2)CC1` [CBK066044] was 101%.
Then `c1ccc2oc(-c3cncc(N4CCN(CCN5CCCC5)CC4)n3)cc2c1` [CBK066052], with 97.1%; and `C[C@@H](Nc1cncc(-c2ccncc2)n1)c1ccccc1` [CBK066055], with 90%.
Take `c1ccc2oc(-c3cncc(NCCc4c[nH]c5ccccc45)n3)cc2c1` [CBK066068]: the viability at 28.5 h, 10 µM came out at 93.1%.
For `CC(CCCC(C)(C)O)Nc1cncc(-c2ccc(C(N)=O)cc2)n1` (centres unmarked) [CBK066071], the viability at 28.5 h, 10 µM amounted to 103%.
In the case of `CCOc1cccc(-c2cncc(NCCO)n2)c1` [CBK066075], the viability at 28.5 h, 10 µM came out at 81%.
Then `CCCC/C=C/c1cncc(NCCc2c[nH]c3ccccc23)n1` [CBK066081], with 100%.
Take `O=C(O)/C=C/c1cccc(-c2cncc(N3CCN(Cc4ccccn4)CC3)n2)c1` [CBK066085]: the viability at 28.5 h, 10 µM was determined as 96%.
Then `CC(C)(CO)CNc1cncc(-c2ccccc2CO)n1` [CBK066088], with 96.3%; and `OCCC1CCCCN1c1cncc(C2CCOC2)n1` (centres unmarked) [CBK066127], with 101%; and `COc1cc(CNc2cncc(-c3cccc(NC(C)=O)c3)n2)cc(OC)c1OC` [CBK066133], with 100%.
Consider `OCc1cccc(-c2cncc(N3CCN(CCN4CCCC4)CC3)n2)c1` [CBK066136], for which the viability at 28.5 h, 10 µM worked out at 99.8%.
The value for `COc1ccccc1-c1cn2ccnc2c(N(C)CCN(C)C)n1` [CBK066156] was 97.5%.
As for `O=C(O)CCc1ccc(-c2cn3ccnc3c(N3CCOCC3)n2)cc1` [CBK066166], the viability at 28.5 h, 10 µM was determined as 93.6%.
Then `c1ccc(-c2cn3ccnc3c(N3CCN(c4ccncc4)CC3)n2)cc1` [CBK066177], with 110%; and `COc1cc(-c2cn3ccnc3c(N[C@H](CO)C(C)C)n2)cc(OC)c1OC` [CBK066220], with 103%.
The value for `c1ccc(Nc2nc(-c3ccc(N4CCOCC4)cc3)cn3ccnc23)cc1` [CBK066222] was 90.4%.
The value for `Clc1cccc(-c2cn3ccnc3c(NCc3cccnc3)n2)c1` [CBK066237] was 104%.
In the case of `Brc1cn2ccnc2c(NCCc2ccccn2)n1` [CBK066244], the viability at 28.5 h, 10 µM amounted to 92.9%.
On to `COc1cc(Nc2nc(-c3cccc(C(=O)NCCN(C)C)c3)cn3ccnc23)cc(OC)c1OC` [CBK066250], for which the viability at 28.5 h, 10 µM stood at 89%.
Then `COc1ccc(Nc2nc(-c3ccc(Cl)cc3)cn3ccnc23)cn1` [CBK066254], with 113%; and `CCN(CCO)c1ccc(Nc2nc(-c3c(OC)cccc3OC)cn3ccnc23)cc1` [CBK066267], with 89.9%.
As to `CCCC/C=C/c1cn2ccnc2c(NCCc2ccccn2)n1` [CBK066275], the viability at 28.5 h, 10 µM was 106%.
Consider `CN(C)CCN(C)c1nc(-c2ccc3[nH]ccc3c2)cn2ccnc12` [CBK066276], for which the viability at 28.5 h, 10 µM came to 94.4%.
Then `FC(F)C(F)(F)Oc1cccc(Nc2nccn3ccnc23)c1` [CBK066284], with 91.6%; and `c1ccc2cc(-c3cn4ccnc4c(NC4CCOCC4)n3)ccc2c1` [CBK066290], with 96.1%; and `CC(C)[C@H](CO)Nc1nc(-c2ccco2)cn2ccnc12` [CBK066316], with 103%.
Turning to `COc1ccc(C(C)C)cc1-c1cn2ccnc2c(NC2CCOCC2)n1` [CBK066320], the viability at 28.5 h, 10 µM was found to be 94%.
Regarding `CC(=O)Nc1ccc(Nc2nc(Br)cn3ccnc23)cc1` [CBK066338], the viability at 28.5 h, 10 µM was found to be 104%.
For the compound `c1ccc2c(-c3cn4ccnc4c(Nc4ccc5cn[nH]c5c4)n3)cccc2c1` [CBK066346], the viability at 28.5 h, 10 µM amounted to 88%.
`c1ccc2cc(-c3cn4ccnc4c(Nc4ccc(N5CCOCC5)cc4)n3)ccc2c1` [CBK066359]: the viability at 28.5 h, 10 µM stood at 108%.
Turning to `CCCNc1nc(-c2cc(OC)c(OC)c(OC)c2)cn2ccnc12` [CBK066363], the viability at 28.5 h, 10 µM turned out to be 99.2%.
With `c1ccc2cc(-c3cn4ccnc4c(N4CCN(c5ccncc5)CC4)n3)ccc2c1` [CBK066369], the viability at 28.5 h, 10 µM came out at 89.2%.
`CCNc1nc(-c2cccc(/C=C/C(=O)O)c2)cn2ccnc12` [CBK066373]: the viability at 28.5 h, 10 µM came out at 88.5%.
Regarding `CCCNc1nc(-c2cccc(O)c2)cn2ccnc12` [CBK066395], the viability at 28.5 h, 10 µM is 93.5%.
With `COc1ccccc1-c1cn2ccnc2c(Nc2cccc(Cl)c2)n1` [CBK066399], the viability at 28.5 h, 10 µM was found to be 89.4%.

(Values after PMC12040169 (PLOS Biology, 2025).)
